According to US20230414593A1, “EZH2 INHIBITION THERAPIES FOR THE TREATMENT OF ANDROGEN RECEPTOR MUTATED PROSTATE CANCERS” (Constellation Pharmaceuticals, Inc, priority 2020, published 2023):

Test system: LNCaP-FGC tumor cells
Test: Tumor growth inhibition in prostate cancer LNCaP model with AR mutation H875Y
Format: in vivo, mouse
Settings: 75 mg/kg orally once daily, LNCaP-FGC subcutaneous tumors, Cmp. 1 compared with Cmp. 2, FIG. 2
Procedure: (R)-7-chloro-2-((1r,4R)-4-(3-methoxyazetidin-1-yl)cyclohexyl)-2,4-dimethyl-N-((6-methyl-4-(methylthio)-2-oxo-1,2-dihydropyridin-3-yl)methyl)benzo[d][1,3]dioxole-5-carboxamide and R—N-((4-methoxy-6-methyl-2-oxo-1,2-dihydropyridin-3-yl)methyl)-2-methyl-1-(1-(1-(2,2,2-trifluoroethyl)piperidin-4-yl)ethyl)-1H-indole-3-carboxamide were examined in a prostate cancer LNCaP Model with AR mutation H875Y.
A fixed dose of 75 mg/kg was used for both compounds. Each mouse was inoculated subcutaneously at the right flank with LNCaP-FGC tumor cells (10×10^6) in 0.1 ml of PBS mixed with RPMI-1640:Matrigel (50:50) for tumor development. The treatments started when the average tumor volume reached approximately 158 mm^3. The test articles were administered orally once daily. The tumor size was used for the calculation of tumor growth inhibition (TGI)=[1−(T1−T0)/(C1−C0)]×100, where C1=mean tumor volume of control mice at time t, T1=mean tumor volume of treated mice at time t, C0=mean tumor volume of control mice at time 0, and T0=mean tumor volume of treated mice at time 0].

COC1CN([C@H]2CC[C@H]([C@@]3(C)Oc4c(Cl)cc(C(=O)NCc5c(SC)cc(C)[nH]c5=O)c(C)c4O3)CC2)C1 [Cmp. 1, (R)-7-chloro-2-((1r,4R)-4-(3-methoxyazetidin-1-yl)cyclohexyl)-2,4-dimethyl-N-((6-methyl-4-(methylthio)-2-oxo-1,2-dihydropyridin-3-yl)methyl)benzo[d][1,3]dioxole-5-carboxamide]
tumor growth inhibition (TGI), relative tumor volume % reduction: more efficacious at tumor growth inhibition | tumor growth inhibition (TGI), relative tumor volume % reduction (listed as (R)-7-chloro-2-(1r,4R)-4-(3-methoxyazetidin-1-yl)cyclohexyl)-2,4-dimethyl-N-((6)): more efficacious
